The record followed here is patent publication US20240218022A1, “ANTI-VISTA MACROCYCLIC PEPTIDES AND COMPOSITIONS” (BRISTOL-MYERS SQUIBB COMPANY, priority 2022, published 2024).

Structures are written as SMILES. Starred links: 1 amine or outer side, 2 acyl side, 3 side chain; linkers in the order of their positions; H or OH if unused. Positions of bridges follow the written chain, without caps; N, C: chain ends. Non-standard residues stand in square brackets, D forms with d. Residues, ends and D or L forms follow the SMILES beside them. ξ: configuration not given here. Phe(4-COOH) = N[C@@H](Cc1ccc(C(=O)O)cc1)C(=O)O; βAsp = O=C(O)[C@H](CC(=O)[*:2])N[*:1]; NMeThr(3ξ) = CN[C@H](C(=O)O)C(C)O; Ahp(2) = CCCCC[C@H](N)C(=O)O; NMeNle = CCCC[C@H](NC)C(=O)O; Tle = CC(C)(C)[C@H](N)C(=O)O; NMeV = CN[C@H](C(=O)O)C(C)C; NMeS = CN[C@@H](CO)C(=O)O; NHexGly = CCCCCCNCC(=O)O; Orn = NCCC[C@H](N)C(=O)O; Aun = NCCCCCCCCCCC(=O)O; AEEA = NCCOCCOCC(=O)O

The target in this experiment is T1, mouse VISTA (mVISTA) (Mus musculus, UniProt Q9D659).
T1 construct: expressed in transfected cells; host or cells: Human embryonic kidney 293T cells
T1 sequence (Q9D659 33-308): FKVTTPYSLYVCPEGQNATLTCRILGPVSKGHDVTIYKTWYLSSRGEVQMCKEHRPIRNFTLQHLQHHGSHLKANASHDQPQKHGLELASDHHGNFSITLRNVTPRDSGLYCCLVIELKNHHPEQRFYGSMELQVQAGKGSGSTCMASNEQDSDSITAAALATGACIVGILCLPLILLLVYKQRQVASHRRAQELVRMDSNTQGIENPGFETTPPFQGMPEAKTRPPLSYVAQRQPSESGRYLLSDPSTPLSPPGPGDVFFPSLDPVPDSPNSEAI
As to the kind of experiment: Cell-Based Binding High-Content Assay For mVISTA (HC CBA mVISTA). The note with it: cell-based binding high-content assay, mVISTA; read-out: HC CBA miPr ISTA IC50. In short, it runs like this: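 Read-out: Alexa 647–streptavidin signal imaged on fixed, Hoechst-stained mVISTA-293T cells, with IC50 taken from a four-parameter logistic curve. Compounds competed with 2 nM biotinylated peptide for 30 min at room temperature, tested under both no-wash and wash (1 h compound, media exchange, 1 h) formats.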

As for `CCCCCCN1CC(=O)N[C@@H](Cc2ccc(O)cc2)C(=O)N[C@@H](CC(C)C)C(=O)N[C@@H](CC(N)=O)C(=O)N[C@@H](CCCNC(=N)N)C(=O)N(C)[C@@H](C(C)C)C(=O)N[C@@H](CCCCC)C(=O)N2CCC[C@H]2C(=O)N[C@@H](C(C)(C)C)C(=O)N[C@@H](CC(=O)O)C(=O)N[C@H](C(=O)N[C@@H](CC(=O)NCCOCCOCC(=O)N[C@@H](CC(=O)O)C(=O)NCCOCCOCC(=O)NCCCCCCCCCCC(=O)O)C(=O)O)CSCC(=O)N[C@@H](Cc2ccccc2)C(=O)N[C@@H](Cc2c[nH]c3ccccc23)C(=O)N[C@@H](CC(=O)O)C1=O` [compound 2040] ({CH2CO}-FWD[NHexGly]YLNR[NMeV][Ahp(2)]P[Tle]DC[βAsp][AEEA]D[AEEA][Aun]-OH; thioether N-14), the IC50 was 40.7 nM.

For `CCCCCCN1CC(=O)N[C@@H](Cc2ccc(O)cc2)C(=O)N[C@@H](CC(C)C)C(=O)N[C@@H](CC(N)=O)C(=O)N[C@@H](CCCNC(=N)N)C(=O)N(C)[C@@H](C(C)C)C(=O)N[C@@H](CCCCC)C(=O)N2CCC[C@H]2C(=O)N[C@@H](C(C)(C)C)C(=O)N[C@@H](CO)C(=O)N[C@H](C(=O)N[C@@H](CC(=O)NCCOCCOCC(=O)N[C@@H](CC(=O)O)C(=O)NCCOCCOCC(=O)NCCCCCCCCCCC(=O)O)C(=O)O)CSCC(=O)N[C@@H](Cc2ccccc2)C(=O)N[C@@H](Cc2ccc(O)cc2)C(=O)N[C@@H](CC(=O)O)C1=O` [compound 2041] ({CH2CO}-FYD[NHexGly]YLNR[NMeV][Ahp(2)]P[Tle]SC[βAsp][AEEA]D[AEEA][Aun]-OH; thioether N-14), the IC50 was 29.7 nM.

Turning to `CCCCCCN1CC(=O)N[C@@H](Cc2ccc(O)cc2)C(=O)N[C@@H](CC(C)C)C(=O)N[C@@H](CC(N)=O)C(=O)N[C@@H](CCCNC(=N)N)C(=O)N(C)[C@@H](C(C)O)C(=O)N[C@@H](CCCCC)C(=O)N2CCC[C@H]2C(=O)N[C@@H](C(C)(C)C)C(=O)N[C@@H](CC(=O)O)C(=O)N[C@H](C(=O)N[C@@H](CC(=O)NCCOCCOCC(=O)N[C@@H](CC(=O)O)C(=O)NCCOCCOCC(=O)NCCCCCCCCCCC(=O)O)C(=O)O)CSCC(=O)N[C@@H](Cc2ccccc2)C(=O)N[C@@H](Cc2c[nH]c3ccccc23)C(=O)N[C@@H](CC(=O)O)C1=O` (stereo partly drawn) [compound 2042] ({CH2CO}-FWD[NHexGly]YLNR[NMeThr(3ξ)][Ahp(2)]P[Tle]DC[βAsp][AEEA]D[AEEA][Aun]-OH; thioether N-14), the IC50 amounted to 30.8 nM.

Take `CCCCCCN1CC(=O)N[C@@H](Cc2ccc(O)cc2)C(=O)N[C@@H](CC(C)C)C(=O)N[C@@H](CC(N)=O)C(=O)N[C@@H](CCCN)C(=O)N(C)[C@@H](CO)C(=O)N[C@@H](CCCCC)C(=O)N2CCC[C@H]2C(=O)N[C@@H](C(C)(C)C)C(=O)N[C@@H](CC(=O)O)C(=O)N[C@H](C(=O)N[C@@H](CC(=O)NCCOCCOCC(=O)N[C@@H](CC(=O)O)C(=O)NCCOCCOCC(=O)NCCCCCCCCCCC(=O)O)C(=O)O)CSCC(=O)N[C@@H](Cc2ccccc2)C(=O)N[C@@H](Cc2ccc(O)cc2)C(=O)N[C@@H](CC(=O)O)C1=O` [compound 2044] ({CH2CO}-FYD[NHexGly]YLN[Orn][NMeS][Ahp(2)]P[Tle]DC[βAsp][AEEA]D[AEEA][Aun]-OH; thioether N-14): the IC50 came to 41.2 nM.

Take `CCCCCCN1CC(=O)N[C@@H](Cc2ccc(O)cc2)C(=O)N[C@@H](CC(C)C)C(=O)N[C@@H](CC(N)=O)C(=O)N[C@@H](CCCN)C(=O)N(C)[C@@H](CCCC)C(=O)N[C@@H](CCCCC)C(=O)N2CCC[C@H]2C(=O)N[C@@H](C(C)(C)C)C(=O)N[C@@H](CO)C(=O)N[C@H](C(=O)N[C@@H](CC(=O)NCCOCCOCC(=O)N[C@@H](CC(=O)O)C(=O)NCCOCCOCC(=O)NCCCCCCCCCCC(=O)O)C(=O)O)CSCC(=O)N[C@@H](Cc2ccccc2)C(=O)N[C@@H](Cc2ccc(O)cc2)C(=O)N[C@@H](CC(=O)O)C1=O` [compound 2045] ({CH2CO}-FYD[NHexGly]YLN[Orn][NMeNle][Ahp(2)]P[Tle]SC[βAsp][AEEA]D[AEEA][Aun]-OH; thioether N-14): the IC50 was determined as 20.1 nM.

In the case of `CCCCCCN1CC(=O)N[C@@H](Cc2ccc(O)cc2)C(=O)N[C@@H](CCCCN)C(=O)N[C@@H](CC(N)=O)C(=O)N[C@@H](CCCNC(=N)N)C(=O)N(C)[C@@H](CCCC)C(=O)N[C@@H](CCCCC)C(=O)N2CCC[C@H]2C(=O)N[C@@H](C(C)(C)C)C(=O)N[C@@H](CO)C(=O)N[C@H](C(=O)N[C@@H](CC(=O)NCCOCCOCC(=O)N[C@@H](CC(=O)O)C(=O)NCCOCCOCC(=O)NCCCCCCCCCCC(=O)O)C(=O)O)CSCC(=O)N[C@@H](Cc2ccccc2)C(=O)N[C@@H](Cc2ccc(O)cc2)C(=O)N[C@@H](CC(=O)O)C1=O` [compound 2046] ({CH2CO}-FYD[NHexGly]YKNR[NMeNle][Ahp(2)]P[Tle]SC[βAsp][AEEA]D[AEEA][Aun]-OH; thioether N-14), the IC50 is 34.5 nM.

With `CCCCCCN1CC(=O)N[C@@H](Cc2ccc(O)cc2)C(=O)N[C@@H](CC(C)C)C(=O)N[C@@H](CC(N)=O)C(=O)N[C@@H](CCCN)C(=O)N(C)[C@@H](CCCC)C(=O)N[C@@H](CCCCC)C(=O)N2CCC[C@H]2C(=O)N[C@@H](C(C)(C)C)C(=O)N[C@@H](CO)C(=O)N[C@H](C(=O)N[C@@H](CC(=O)NCCOCCOCC(=O)N[C@@H](CC(=O)O)C(=O)NCCOCCOCC(=O)NCCCCCCCCCCC(=O)O)C(=O)O)CSCC(=O)N[C@@H](Cc2ccc(C(=O)O)cc2)C(=O)N[C@@H](Cc2ccc(O)cc2)C(=O)N[C@@H](CC(=O)O)C1=O` [compound 2047] ({CH2CO}-[Phe(4-COOH)]YD[NHexGly]YLN[Orn][NMeNle][Ahp(2)]P[Tle]SC[βAsp][AEEA]D[AEEA][Aun]-OH; thioether N-14), the IC50 came out at 48.8 nM.

`CCCCCCN1CC(=O)N[C@@H](Cc2ccc(O)cc2)C(=O)N[C@@H](CC(C)C)C(=O)N[C@@H](CC(N)=O)C(=O)N[C@@H](CCCNC(=N)N)C(=O)N(C)[C@@H](CO)C(=O)N[C@@H](CCCCC)C(=O)N2CCC[C@H]2C(=O)N[C@@H](C(C)(C)C)C(=O)N[C@@H](CC(=O)O)C(=O)N[C@H](C(=O)N[C@@H](CC(=O)NCCOCCOCC(=O)N[C@@H](CC(=O)O)C(=O)NCCOCCOCC(=O)NCCCCCCCCCCC(=O)O)C(=O)O)CSCC(=O)N[C@@H](Cc2ccc(C(=O)O)cc2)C(=O)N[C@@H](Cc2ccc(O)cc2)C(=O)N[C@@H](CC(=O)O)C1=O` [compound 2048] ({CH2CO}-[Phe(4-COOH)]YD[NHexGly]YLNR[NMeS][Ahp(2)]P[Tle]DC[βAsp][AEEA]D[AEEA][Aun]-OH; thioether N-14): the IC50 was found to be 35 nM.

As for `CCCCCCN1CC(=O)N[C@@H](Cc2ccc(O)cc2)C(=O)N[C@@H](CC(C)C)C(=O)N[C@@H](CC(N)=O)C(=O)N[C@@H](CCCNC(=N)N)C(=O)N(C)[C@@H](CCCC)C(=O)N[C@@H](CCCCC)C(=O)N2CCC[C@H]2C(=O)N[C@@H](C(C)(C)C)C(=O)N[C@@H](CO)C(=O)N[C@H](C(=O)N[C@@H](CC(=O)NCCOCCOCC(=O)N[C@@H](CC(=O)O)C(=O)NCCOCCOCC(=O)NCCCCCCCCCCC(=O)O)C(=O)O)CSCC(=O)N[C@@H](Cc2ccc(C(=O)O)cc2)C(=O)N[C@@H](Cc2ccc(O)cc2)C(=O)N[C@@H](CC(=O)O)C1=O` [compound 2050] ({CH2CO}-[Phe(4-COOH)]YD[NHexGly]YLNR[NMeNle][Ahp(2)]P[Tle]SC[βAsp][AEEA]D[AEEA][Aun]-OH; thioether N-14), the IC50 is 24.1 nM.
